Laboratory results from patent US20170275270A1, “BENZYL SUBSTITUTED INDAZOLES” (Bayer Pharma Aktiengesellschaft, priority 2014, published 2017).
Where a name gives a salt, the structure may show the parent alone.

These molecules were tested against T1, catalytic domain of human Bub1 (amino acids 704-1085) (Homo sapiens, UniProt O43683) (assay: Bub1 kinase assay (TR-FRET)). Settings: 10 μM ATP, read-out: Biological Assay 1: Bub1 kinase assay median IC50.
T1 construct: catalytic domain of human Bub1 (amino acids 704-1085); His6 (N); made in house; host or cells: Hi5 insect cells
Format: biochemical
Description: To this end, 100-fold concentrated compound solutions (in DMSO) were previously prepared by serial dilution (1:3.4) of 2 mM stocks in a clear low volume 384-well source microtiter plate (Greiner Bio-One, Frickenhausen, Germany), from which 50 nL of compounds were transferred into a black low volume test microtiter plate from the same supplier. […] The resulting mixture (5 μL final volume) was incubated at 22° C. during 60 min., and the reaction was stopped by the addition of 5 μL of an aqueous EDTA-solution (50 mM EDTA, in 100 mM HEPES pH 7.5 and 0.2% (w/v) bovine serum albumin) which also contained the TR-FRET detection reagents (0.2 μM streptavidin-XL665 [Cisbio Bioassays, Codolet, France] and 1 nM anti-phosho-Serine antibody [Merck Millipore, cat. #35-001] and 0.4 nM LANCE EU-W1024 labeled anti-mouse IgG antibody [Perkin-Elmer, product no. AD0077, alternatively a Terbium-cryptate-labeled anti-mouse IgG antibody from Cisbio Bioassays can be used]). The stopped reaction mixture was further incubated 1 h at 22° C. in order to allow the formation of complexes between peptides and detection reagents. Subsequently, the amount of product was evaluated by measurement of the resonance energy transfer from the Eu-chelate-antibody complex recognizing the Phosphoserine residue to the streptavidin-XL665 bound to the biotin moiety of the peptide. […] IC50 values were calculated by fitting the normalized inhibition data to a 4-parameter logistic equation (Minimum, Maximum, IC50, Hill; Y=Max+(Min−Max)/(1+(X/IC50) Hill)).

T1 sequence (O43683 704-1085): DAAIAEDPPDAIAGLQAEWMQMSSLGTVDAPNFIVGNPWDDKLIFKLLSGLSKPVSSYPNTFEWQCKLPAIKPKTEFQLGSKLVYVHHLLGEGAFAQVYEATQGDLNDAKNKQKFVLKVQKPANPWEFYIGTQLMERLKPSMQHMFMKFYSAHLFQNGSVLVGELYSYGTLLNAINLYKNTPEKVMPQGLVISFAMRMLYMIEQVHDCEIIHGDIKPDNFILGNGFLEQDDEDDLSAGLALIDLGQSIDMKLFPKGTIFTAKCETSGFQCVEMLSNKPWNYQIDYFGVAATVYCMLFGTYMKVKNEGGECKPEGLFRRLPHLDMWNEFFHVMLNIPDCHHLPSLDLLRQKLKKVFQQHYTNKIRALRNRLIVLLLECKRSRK

SMILES	IC50 [µM]
CCOc1cc(F)c(Cn2nc(-c3ncc(CCN)c(Nc4ccnc(C)c4)n3)c3ccccc32)c(F)c1 [Example 2-9-12, 5-(2-aminoethyl)-2-[1-(4-ethoxy-2,6-difluorobenzyl)-1H-indazol-3-yl]-N-(2-methylpyridin-4-yl)pyrimidin-4-amine, salt with hydrochloric acid]	0.0043
CCOc1cc(F)c(Cn2nc(-c3ncc(CC4CNC4)c(Nc4ccnc(C)n4)n3)c3ccccc32)c(F)c1 [Example 2-9-20, 5-(azetidin-3-ylmethyl)-2-[1-(4-ethoxy-2,6-difluorobenzyl)-1H-indazol-3-yl]-N-(2-methylpyrimidin-4-yl)pyrimidin-4-amine, salt with hydrochloric acid]	0.049
CCOc1cc(F)c(Cn2nc(-c3ncc(CCN)c(Nc4ccncc4Cl)n3)c3ccccc32)c(F)c1 [Example 2-9-21, 5-(2-aminoethyl)-N-(3-chloropyridin-4-yl)-2-[1-(4-ethoxy-2,6-difluorobenzyl)-1H-indazol-3-yl]pyrimidin-4-amine]	0.013
CCOc1cc(F)c(Cn2nc(-c3ncc(CCN)c(Nc4ccnc(C)n4)n3)c3ccccc32)c(F)c1 [Example 2-9-22, 5-(2-aminoethyl)-2-[1-(4-ethoxy-2,6-difluorobenzyl)-1H-indazol-3-yl]-N-(2-methylpyrimidin-4-yl)pyrimidin-4-amine, salt with hydrochloric acid (1:2)]	0.0093
COCc1cc(Nc2ccncc2OC)nc(-c2nn(Cc3c(F)cc(OCCO)cc3F)c3ccccc23)n1 [Example 2-12-49, 2-{3,5-difluoro-4-[(3-{4-(methoxymethyl)-6-[(3-methoxypyridin-4-yl)amino]pyrimidin-2-yl}-1H-indazol-1-yl)methyl]phenoxy}eth-anol]	0.0088

Same assay, conditions: Biological Assay 1: Bub1 kinase assay median IC50, 10 μM ATP

SMILES	IC50 [µM]
CC(=O)Nc1cc(Nc2nc(-c3nn(Cc4c(F)cc(OCCO)cc4F)c4ccccc34)nc3c2CCC(C)(C)C3)ccn1 [Example 2-6-42, N-{4-[(2-{1-[2,6-difluoro-4-(2-hydroxyethoxy)benzyl]-1H-indazol-3-yl}-7,7-dimethyl-5,6,7,8-tetrahydroquin-azolin-4-yl)amino]pyridin-2-yl}acetamide]	0.014
Cc1cc(Nc2nc(-c3nn(Cc4c(F)cc(OCCO)cc4F)c4ccccc34)nc3c2CCC(C)(C)C3)c(C)cn1 [Example 2-6-43, 2-{4-[(3-{4-[(2,5-dimethylpyridin-4-yl)amino]-7,7-dimethyl-5,6,7,8-tetrahydroquin-azolin-2-yl}-1H-indazol-1-yl)methyl]-3,5-difluorophenoxy} ethanol]	0.084
COc1cnccc1Nc1nc(-c2nn(Cc3c(F)cc(OCCO)cc3F)c3ccccc23)nc2c1CCCCC2 [Example 2-6-44, 2-{3,5-difluoro-4-[(3-{4-[(3-methoxypyridin-4-yl)amino]-6,7,8,9-tetrahydro-5H-cyclohepta[d]pyrimidin-2-yl}-1H-indazol-1-yl)methyl]phenoxy}ethanol]	0.012
CCOc1cc(F)c(Cn2nc(-c3nc4c(c(Nc5ccncc5)n3)CNCC4)c3ccccc32)c(F)c1 [Example 2-9-16, 2-[1-(4-ethoxy-2,6-difluorobenzyl)-1H-indazol-3-yl]-N-(pyridin-4-yl)-5,6,7,8-tetrahydro-pyrido[4,3-d]pyr-imidin-4-amine]	0.016
CCOc1cc(F)c(Cn2nc(-c3ncc(CC4CNC4)c(Nc4cc(C)ncc4C)n3)c3ccccc32)c(F)c1 [Example 2-9-19, 5-(azetidin-3-ylmethyl)-N-(2,5-dimethylpyridin-4-yl)-2-[1-(4-ethoxy-2,6-difluorobenzyl)-1H-indazol-3-yl]pyrimidin-4-amine, salt with hydrochloric acid]	0.044
COCCOc1cc(F)c(Cn2nc(-c3nc4c(c(Nc5ccncc5Cl)n3)CNC4)c3ccccc32)c(F)c1 [Example 2-9-24, N-(3-chloropyridin-4-yl)-2-{1-[2,6-difluoro-4-(2-meth-oxyethoxy)benzyl]-1H-indazol-3-yl}-6,7-dihydro-5H-pyrrolo[3,4-d]pyrimidin-4-amine]	0.038
COCCOc1cc(F)c(Cn2nc(-c3nc4c(c(Nc5ccnc(C)n5)n3)CNC4)c3ccccc32)c(F)c1 [Example 2-9-25, 2-{1-[2,6-difluoro-4-(2-methoxy-ethoxy)benzyl]-1H-indazol-3-yl}-N-(2-methylpyrimidin-4-yl)-6,7-dihydro-5H-pyrrolo[3,4-d]pyrimidin-4-amine, salt with hydrochloric acid]	0.077
COCCOc1cc(F)c(Cn2nc(-c3nc4c(c(Nc5cc(C)ncc5C)n3)CNC4)c3ccccc32)c(F)c1 [Example 2-9-26, 2-{1-[2,6-difluoro-4-(2-methoxy-ethoxy)benzyl]-1H-indazol-3-yl}-N-(2,5-dimethylpyridin-4-yl)-6,7-dihydro-5H-pyrrolo[3,4-d]pyr-imidin-4-amine]	0.18
COCCOc1cc(F)c(Cn2nc(-c3nc4c(c(Nc5ccncn5)n3)CNC4)c3ccccc32)c(F)c1 [Example 2-9-27, 2-{1-[2,6-difluoro-4-(2-methoxy-ethoxy)benzyl]-1H-indazol-3-yl}-N-(pyrimidin-4-yl)-6,7-dihydro-5H-pyrrolo[3,4-d]pyr-imidin-4-amine, salt with hydrochloric acid]	0.02
CCOc1cc(F)c(Cn2nc(-c3ncc(CC4CN(CC(F)(F)F)C4)c(Nc4ccnc(NC(C)=O)c4)n3)c3ccccc32)c(F)c1 [Example 2-11-4, N-{4-[(2-[1-(4-ethoxy-2,6-difluorobenzyl)-1H-indazol-3-yl]-5-{[1-(2,2,2-trifluoroeth-yl)azetidin-3-yl]methyl}pyrimidin-4-yl)amino]pyr-idin-2-yl}acetamide]	0.21
CCOc1cc(F)c(Cn2nc(-c3nc(C)cc(Nc4ccncc4)n3)c3ccccc32)c(F)c1 [Example 2-12-1, 2-[1-(4-ethoxy-2,6-difluorobenzyl)-1H-indazol-3-yl]-6-methyl-N-(pyridin-4-yl)pyrimidin-4-amine]	0.0084
CCOc1cc(F)c(Cn2nc(-c3nc(C)c(CC)c(Nc4ccncc4)n3)c3ccccc32)c(F)c1 [Example 2-12-8, 2-[1-(4-ethoxy-2,6-difluorobenzyl)-1H-indazol-3-yl]-5-ethyl-6-methyl-N-(pyridin-4-yl)pyrimidin-4-amine]	0.016
CCOc1cc(F)c(Cn2nc(-c3nc4c(c(Nc5ccncc5)n3)CCN(Cc3ccccc3)C4)c3ccccc32)c(F)c1 [Example 2-12-15, 7-Benzyl-2-[1-(4-ethoxy-2,6-difluorobenzyl)-1H-indazol-3-yl]-N-(pyridin-4-yl)-5,6,7,8-tetrahydropyrido[3,4-d]pyrimidin-4-amine]	0.068
COc1ccc(Cn2nc(-c3nc(C)c(F)c(Nc4ccncc4)n3)c3ccccc32)cc1 [Example 2-12-24, 5-fluoro-2-[1-(4-methoxybenzyl)-1H-indazol-3-yl]-6-methyl-N-(pyridin-4-yl)-pyrimidin-4-amine]	0.055
COCCOc1cc(F)c(Cn2nc(-c3nc(CN4CCOCC4)cc(Nc4ccnc(C(F)F)c4)n3)c3ccccc32)c(F)c1 [Example 2-12-36, 2-{1-[2,6-difluoro-4-(2-methoxyethoxy)benzyl]-1H-indazol-3-yl}-N-[2-(difluoromethyl)pyridin-4-yl]-6-(morpholin-4-ylmethyl)pyrimidin-4-amine]	0.057
COCCOc1cc(F)c(Cn2nc(-c3nc(CN4CCOCC4)cc(Nc4ccncn4)n3)c3ccccc32)c(F)c1 [Example 2-12-37, 2-{1-[2,6-difluoro-4-(2-methoxyethoxy)benzyl]-1H-indazol-3-yl}-6-(morpholin-4-ylmethyl)-N-(pyrimidin-4-yl)pyrimidin-4-amine]	0.017
COCCOc1cc(F)c(Cn2nc(-c3nc(CN4CCOCC4)cc(Nc4ccncc4Cl)n3)c3ccccc32)c(F)c1 [Example 2-12-40, N-(3-chloropyridin-4-yl)-2-{1-[2,6-difluoro-4-(2-methoxyethoxy)benzyl]-1H-indazol-3-yl}-6-(morpholin-4-ylmethyl)pyrimidin-4-amine]	0.01
CCOc1cc(F)c(Cn2nc(-c3nc(CN4CCOCC4)cc(Nc4ccnc(O)c4)n3)c3ccccc32)c(F)c1 [Example 2-12-46, 4-({2-[1-(4-ethoxy-2,6-difluorobenzyl)-1H-indazol-3-yl]-6-(morpholin-4-ylmethyl)pyrimidin-4-yl}amino)pyridin-2-ol]	1.1
COCCOc1cc(F)c(Cn2nc(-c3nc4c(c(Nc5ccnc(C)n5)n3)CCC4)c3ccccc32)c(F)c1 [Example 2-12-55, 2-{1-[2,6-difluoro-4-(2-methoxyethoxy)benzyl]-1H-indazol-3-yl}-N-(2-methylpyrimidin-4-yl)-6,7-dihydro-5H-cyclopenta[d]pyrimidin-4-amine]	0.044
COCCOc1cc(F)c(Cn2nc(-c3nc4c(c(Nc5ccncn5)n3)CCC4)c3ccccc32)c(F)c1 [Example 2-12-56, 2-{1-[2,6-difluoro-4-(2-methoxyethoxy)benzyl]-1H-indazol-3-yl}-N-(pyrimidin-4-yl)-6,7-dihydro-5H-cyclopenta[d]pyrimidin-4-amine]	0.007
